From paper PMC2878666 (Biochemistry, 2009)

What was measured:
[1] = molecular target: T1, nicotinic acetylcholine receptor (Torpedo nAChR, α2βγδ), α subunit (Tetronarce californica, UniProt P02710+P02712+P02714+P02718); test: [3H]PCP radioligand displacement, centrifugation assay; assay type: binding
[2] = molecular target: T1, nicotinic acetylcholine receptor (Torpedo nAChR, α2βγδ), α subunit; test: [3H]PCP radioligand displacement; assay type: binding

T1 sequence (P02710 25-461): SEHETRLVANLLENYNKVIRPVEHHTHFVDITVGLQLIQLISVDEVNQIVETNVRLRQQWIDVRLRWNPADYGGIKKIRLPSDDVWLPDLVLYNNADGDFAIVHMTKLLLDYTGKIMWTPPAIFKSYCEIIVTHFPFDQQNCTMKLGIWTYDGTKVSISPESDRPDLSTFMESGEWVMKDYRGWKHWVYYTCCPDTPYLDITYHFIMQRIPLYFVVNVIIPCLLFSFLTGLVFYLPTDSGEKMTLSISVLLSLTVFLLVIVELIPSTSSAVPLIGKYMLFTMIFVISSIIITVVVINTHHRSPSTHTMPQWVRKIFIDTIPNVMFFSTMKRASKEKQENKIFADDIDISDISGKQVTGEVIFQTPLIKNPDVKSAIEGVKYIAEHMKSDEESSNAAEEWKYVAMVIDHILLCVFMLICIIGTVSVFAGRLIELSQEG
T1 sequence (P02712 25-493): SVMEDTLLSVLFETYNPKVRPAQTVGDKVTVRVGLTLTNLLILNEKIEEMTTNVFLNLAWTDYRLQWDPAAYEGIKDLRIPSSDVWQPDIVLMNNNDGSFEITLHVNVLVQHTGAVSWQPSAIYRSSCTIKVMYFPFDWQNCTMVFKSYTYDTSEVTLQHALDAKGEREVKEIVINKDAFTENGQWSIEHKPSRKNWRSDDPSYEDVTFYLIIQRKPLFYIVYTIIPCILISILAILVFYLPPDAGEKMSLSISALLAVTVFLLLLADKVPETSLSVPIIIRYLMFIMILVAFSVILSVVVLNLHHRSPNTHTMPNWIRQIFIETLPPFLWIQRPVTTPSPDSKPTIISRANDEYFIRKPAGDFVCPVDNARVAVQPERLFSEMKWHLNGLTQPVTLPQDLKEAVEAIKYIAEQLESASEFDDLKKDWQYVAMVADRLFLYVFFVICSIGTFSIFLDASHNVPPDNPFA
T1 sequence (P02714 18-506): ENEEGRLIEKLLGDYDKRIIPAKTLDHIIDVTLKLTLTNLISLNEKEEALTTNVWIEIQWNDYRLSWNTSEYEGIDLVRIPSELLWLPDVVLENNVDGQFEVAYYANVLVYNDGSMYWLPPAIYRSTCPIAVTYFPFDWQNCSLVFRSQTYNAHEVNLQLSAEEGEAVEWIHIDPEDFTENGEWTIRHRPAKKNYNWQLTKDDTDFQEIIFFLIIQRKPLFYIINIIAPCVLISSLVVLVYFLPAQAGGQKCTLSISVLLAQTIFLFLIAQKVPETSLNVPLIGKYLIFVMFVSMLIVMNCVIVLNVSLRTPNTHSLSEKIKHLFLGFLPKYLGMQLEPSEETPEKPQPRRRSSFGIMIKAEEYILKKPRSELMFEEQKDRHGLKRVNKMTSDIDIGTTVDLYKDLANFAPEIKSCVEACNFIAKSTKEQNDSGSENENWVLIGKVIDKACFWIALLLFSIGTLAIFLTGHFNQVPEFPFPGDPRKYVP
T1 sequence (P02718 22-522): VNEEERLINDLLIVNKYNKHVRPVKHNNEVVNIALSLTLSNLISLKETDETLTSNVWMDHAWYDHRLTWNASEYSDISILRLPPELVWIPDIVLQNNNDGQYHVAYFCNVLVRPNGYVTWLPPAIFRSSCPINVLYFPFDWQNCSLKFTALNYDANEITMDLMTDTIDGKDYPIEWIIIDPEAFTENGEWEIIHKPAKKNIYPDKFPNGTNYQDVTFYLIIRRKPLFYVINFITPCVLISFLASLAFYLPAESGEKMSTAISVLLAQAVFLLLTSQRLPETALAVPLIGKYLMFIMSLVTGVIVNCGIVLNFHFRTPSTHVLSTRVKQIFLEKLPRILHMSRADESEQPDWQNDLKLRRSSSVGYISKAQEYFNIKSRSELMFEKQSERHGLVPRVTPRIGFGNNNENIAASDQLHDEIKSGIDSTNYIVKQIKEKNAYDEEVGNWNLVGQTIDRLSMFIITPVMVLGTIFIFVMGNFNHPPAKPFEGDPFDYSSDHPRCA

Row | Structure (SMILES) | IC50 [1] [µM] | IC50 [2] [µM]
1 | CN(C)CCCN1c2ccccc2[S+]([O-])c2ccc(Cl)cc21 (stereo not drawn) [CPZsulfoxide, chlorpromazine sulfoxide] | 69 ± 6 | –
2 | CN(C)CCCN1c2ccccc2Sc2ccccc21 [promazine] | 3.5 ± 0.2 | –
3 | CN(C)CCCN1c2ccccc2Sc2ccc(Cl)cc21 [CPZ, chlorpromazine] | – | 2.3 ± 0.4
